According to patent publication US8217042B2, “Pyridopyrazines and their use as modulators of kinases” (Zentaris GmbH, priority 2005, dated 2012):

Key:
Jnk1 + Jnk2 = experiment: Cell-free kinase assay (ALPHA technology), Jnk1 + Jnk2; format: biochemical; conditions: at 10 μM or 100 μM* ATP, recombinant human kinases
Method: The inhibitory effect of the inventive compounds was tested on various human serine/threonine kinases, tyrosine kinases and lipid kinases in enzymatic assays. Recombinant human kinases, for example Erk2, PI3Kalpha, -beta, -gamma, -delta, p38alpha, p38gamma, Jnk1, Jnk2 and others were used, in some cases as full-length kinases, in some cases as truncated fragments—but at least consisting of the functional kinase domains. The commercial kinase proteins (Proqinase, Upstate) were used as recombinant fusion proteins with GST (glutathione S-transferase) tag or His tag. Depending on the substrate type, the different kinase reactions were quantified by means of suitable ALPHA™ beads (PerkinElmer). […]
(§1) The fluorescence was detected the next morning in a Fusion™ alpha instrument (Perkin Elmer).
(§2) The calculation of % inhibition values per substance concentration was done by means of the following formula from the raw data determined in the Fusion™ alpha:
(§3) The controls were each determined 8 times, the substance samples each twice. 0% control contained neither any ATP nor any substrate; the 100% control contained no test substance. The IC50 values were determined with GraphPadPrism.

Erk →pRsk = experiment: Cellular substrate phosphorylation (Western blotting), Erk substrate Rsk1; format: cell-based; conditions: 5 h, tumour cell line
Method: (§4) This method enables a statement of whether the kinase modulator investigated achieves the desired effect in a cellular context too, i.e., in this case, a substrate protein downstream of the target kinase is examined for its phosphorylation status. To this end, the cells incubated with substance are lysed and the overall protein is separated on a reducing polyacrylamide gel. Subsequently, the proteins are transferred by means of Western blotting to a PVDF membrane and the substrate bands sought are made visible with specific antibodies and a suitable detection method. The substrate proteins downstream of the target kinases are detected simultaneously with an anti-phospho antibody which is specific in each case and simultaneously a total antibody which recognizes the substrate total protein. The duplex technology of the ODYSSEY imager (LiCOR) enables this simultaneous measurement. The intensity of the total substrate bands is employed to normalize and quantify the phosphorylation inhibition or activation.
(§5) Suitable tumour cell lines (e.g. BxPC3, Hct116 or MDA MB468) were seeded into 6-well microtitre plates in a defined cell count (e.g. 350 000 cells/well for BxPC3 and Hct116) in the particular standard complete media and then incubated overnight in an incubator at 37° C., 5% CO2 and 95% air humidity. The cells were then incubated further for a further 24 h under reduced-serum conditions, i.e. in the particular medium except at only 0.25% serum. The test substances were made up as stock solutions (10 mM) in DMSO and incubated with the cells at final concentrations of 5, 15.8 and 50 μM for 5 h. This was followed by cell lysis in 25 mM Tris, 150 mM NaCl, 10 mM sodium pyrophosphate, 2 mM EGTA, 25 mM beta-glycerophosphate, 25 mM NaF, 10% glycerol, 0.75% NP-40, 100 μM NaVO4 buffer. After protein quantification by means of BCA (bicinchonic acid protein assay kit, Sigma) assay, amounts of protein of about 20 μg per track were separated on a Lammli polyacrylamide gel and then transferred onto a PVDF membrane (Millipore) by means of semi-dry Western blotting at 0.8 mA/cm^2 for 1 h. This was followed by prehybridization of the membrane for 1 hour in I-block reagent (Applied Biosystems) and overnight incubation with the specific antibodies. To determine the Erk and PI3K inhibition, the next substrates Rsk1 downstream were detected with the total antibody (Rsk #sc-231g C-21, Santa Cruz) and the phospho antibody (Phospho-p90RSK (S380) #9341, NEB Cell Signalling) and Akt with the total antibody (Akt1 #sc-20, Santa Cruz) and the phospho antibody (Phospho-Akt (Ser 473) #9271, NEB Cell Signaling). After the membrane had been washed, the secondary antibodies were incubated with anti-rabbit IR Dye 800 (#611-732-127, Rockland) for the phospho antibody and anti-goat Alexa Fluor 680 (#A-21081, […]) for the total protein antibody. After incubation for 30 min at room temperature in the dark, the hybridization of the detection antibody was detected on the membrane by scanning in an ODYSSEY imager (LiCOR).

PI3K →pAkt = experiment: Cellular substrate phosphorylation (Western blotting), PI3K substrate Akt; format: cell-based; conditions: 5 h, tumour cell line
Method: as §4, §5

Erk2 = target: T1, Erk2; experiment: Cell-free kinase assay (ALPHA technology), Erk2-ALPHA; format: biochemical; conditions: 10 μM ATP, recombinant human kinase
T1 construct: in some cases as full-length kinases, in some cases as truncated fragments; purchased Upstate 14-173
T1 sequence (P63085 whole entry, the tested form may be a part): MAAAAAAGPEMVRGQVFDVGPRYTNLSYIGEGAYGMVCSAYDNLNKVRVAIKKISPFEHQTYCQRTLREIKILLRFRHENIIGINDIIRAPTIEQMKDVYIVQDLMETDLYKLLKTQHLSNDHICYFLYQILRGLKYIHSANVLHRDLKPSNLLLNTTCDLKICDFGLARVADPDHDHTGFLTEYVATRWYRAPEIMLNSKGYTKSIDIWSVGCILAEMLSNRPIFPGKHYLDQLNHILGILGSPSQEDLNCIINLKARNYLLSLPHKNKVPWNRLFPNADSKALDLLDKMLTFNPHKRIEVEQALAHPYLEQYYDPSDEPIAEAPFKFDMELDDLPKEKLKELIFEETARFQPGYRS
Method: (§6) The inhibitory effect of the inventive compounds was tested on various human serine/threonine kinases, tyrosine kinases and lipid kinases in enzymatic assays. Recombinant human kinases, for example Erk2, PI3Kalpha, -beta, -gamma, -delta, p38alpha, p38gamma, Jnk1, Jnk2 and others were used, in some cases as full-length kinases, in some cases as truncated fragments—but at least consisting of the functional kinase domains. The commercial kinase proteins (Proqinase, Upstate) were used as recombinant fusion proteins with GST (glutathione S-transferase) tag or His tag. Depending on the substrate type, the different kinase reactions were quantified by means of suitable ALPHA™ beads (PerkinElmer).
(§7) The substrate testing on the Erk assay is described in detail below. Selected test results of the Erk2, PI3Kalpha assays are cited below. […] The kinase reaction was then stopped by adding 10 μl of the ALPHA bead mix (10 μg/ml, #6760617/PerkinElmer), pre-incubated with anti-phospho MBP antibody (320 μM, #05-429/Upstate), in 25 mM Tris, 200 mM NaCl, 100 mM EDTA and 0.3% BSA, and left to stand overnight. • b) PI3K-ALPHAs (e.g. PI3Kalpha): The test substance, 1 ng of PI3Kalpha (#14-602, Upstate), 100 μM ATP and 20 μM PIP2 substrate (#P4508, Echelon) on a 384-well Optiplate (Perkin Elmer) for 1 h in 50 mM Hepes, 50 mM NaCl, 5 mM MgCl2, 0.05% Chaps, 5 mM DTT at pH 7.4. Subsequently, the kinase reaction was stopped by adding the ALPHA bead mix (10 μg/ml, #6760603/PerkinElmer), preincubated with 1 nM GST:Grp1 fusion protein (Upstate) and 15 nM biotinylated PIP3 (#C-39B6/Echelon) in 50 mM Hepes, 50 mM NaCl, 50 mM EDTA and 0.1% BSA, and left to stand overnight.
as §1, §2, §3

PI3Kalpha = target: T2, PI3Kalpha (Homo sapiens, UniProt P42336); experiment: Cell-free kinase assay (ALPHA technology), PI3K-ALPHA; format: biochemical; conditions: 100 μM ATP, recombinant human kinase
T2 construct: in some cases as full-length kinases, in some cases as truncated fragments; purchased Upstate 14-602
T2 sequence (P42336 whole entry, the tested form may be a part): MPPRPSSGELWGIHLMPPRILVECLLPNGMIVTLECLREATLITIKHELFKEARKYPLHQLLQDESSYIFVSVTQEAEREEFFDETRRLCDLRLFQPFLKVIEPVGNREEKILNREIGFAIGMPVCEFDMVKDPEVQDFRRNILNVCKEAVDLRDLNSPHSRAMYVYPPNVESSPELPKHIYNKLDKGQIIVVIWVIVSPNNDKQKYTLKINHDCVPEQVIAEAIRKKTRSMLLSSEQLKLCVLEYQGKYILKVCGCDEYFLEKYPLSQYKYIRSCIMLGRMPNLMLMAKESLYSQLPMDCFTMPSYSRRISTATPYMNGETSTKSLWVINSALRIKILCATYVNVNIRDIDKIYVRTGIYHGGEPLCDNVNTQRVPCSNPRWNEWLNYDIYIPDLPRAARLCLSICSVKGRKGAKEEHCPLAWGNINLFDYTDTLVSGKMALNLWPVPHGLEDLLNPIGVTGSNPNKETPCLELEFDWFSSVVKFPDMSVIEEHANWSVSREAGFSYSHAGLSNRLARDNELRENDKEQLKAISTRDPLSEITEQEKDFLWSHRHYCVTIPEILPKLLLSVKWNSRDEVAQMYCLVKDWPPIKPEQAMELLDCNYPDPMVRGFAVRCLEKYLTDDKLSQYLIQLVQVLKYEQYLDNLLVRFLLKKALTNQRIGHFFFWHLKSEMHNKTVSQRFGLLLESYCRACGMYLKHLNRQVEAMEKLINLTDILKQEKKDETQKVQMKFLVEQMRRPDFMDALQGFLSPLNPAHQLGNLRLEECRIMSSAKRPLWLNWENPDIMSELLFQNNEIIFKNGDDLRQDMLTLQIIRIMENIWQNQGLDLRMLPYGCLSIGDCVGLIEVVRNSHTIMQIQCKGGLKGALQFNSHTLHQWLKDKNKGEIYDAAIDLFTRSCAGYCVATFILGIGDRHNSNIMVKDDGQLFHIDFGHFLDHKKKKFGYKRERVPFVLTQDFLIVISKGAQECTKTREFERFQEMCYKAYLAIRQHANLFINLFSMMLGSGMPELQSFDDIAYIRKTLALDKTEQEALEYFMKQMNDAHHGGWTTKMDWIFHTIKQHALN
T2 sequence (P27986 whole entry partner, the tested form may be a part): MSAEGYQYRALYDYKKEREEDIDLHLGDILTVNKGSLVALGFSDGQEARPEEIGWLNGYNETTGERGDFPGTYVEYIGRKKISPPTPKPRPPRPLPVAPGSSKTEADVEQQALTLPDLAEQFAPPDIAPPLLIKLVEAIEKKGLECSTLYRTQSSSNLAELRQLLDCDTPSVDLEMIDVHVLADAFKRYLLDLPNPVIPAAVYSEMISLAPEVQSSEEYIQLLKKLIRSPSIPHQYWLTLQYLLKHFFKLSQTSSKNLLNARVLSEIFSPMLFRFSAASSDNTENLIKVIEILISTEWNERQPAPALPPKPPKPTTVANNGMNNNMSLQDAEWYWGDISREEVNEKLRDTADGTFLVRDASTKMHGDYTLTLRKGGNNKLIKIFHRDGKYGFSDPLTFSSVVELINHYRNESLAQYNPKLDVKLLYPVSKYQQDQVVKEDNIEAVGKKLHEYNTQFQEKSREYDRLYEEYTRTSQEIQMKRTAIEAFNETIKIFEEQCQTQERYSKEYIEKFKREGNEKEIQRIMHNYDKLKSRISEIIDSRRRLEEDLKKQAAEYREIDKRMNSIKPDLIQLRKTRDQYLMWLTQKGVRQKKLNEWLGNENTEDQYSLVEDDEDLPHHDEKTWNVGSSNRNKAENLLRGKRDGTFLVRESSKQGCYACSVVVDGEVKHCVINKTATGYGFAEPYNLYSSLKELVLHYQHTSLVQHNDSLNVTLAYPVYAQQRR
Method: as §6, §7, §1, §2, §3

BxPC3 = experiment: XTT assay, anti-proliferative action, BxPC3; format: cell-based; conditions: Homo sapiens, BXPC-3, 45 h, BxPC3 cells, 45 h incubation
Method: (§8) The principle of this test is based on the intracellular reduction of the tetrazolium dye XTT (sodium 3′-[1-(phenylaminocarbonyl)-3,4-tetrazolium]bis(4-methoxy-6-nitro)benzenenesulphonic acid, Sigma) to a formazan dye by mitochondrial dehydrogenases.
(§9) The dye is formed only by metabolically active cells; its photometrically measurable intensity is a quantitative indicator for the presence of living cells. The reduction in the dye formation as a result of incubation of the cells with substances serves as a parameter for the anti-proliferative action.
(§10) The tumour cell lines (ATCC) were seeded in 96-well microtitre plates in a defined cell count (5000 cells/well for BxPC3 and Hct116; 10 000 cells/well for MDA MB468), and then incubated overnight in an incubator at 37° C., 5% CO2 and 95% air humidity. The test substances were made up as stock solutions (10 mM) in DMSO. […] The cell plates were then incubated for 45 h in an incubator at 37° C., 5% CO2 and 95% air humidity.
(§11) For the detection reaction, the XTT substrate was admixed with PMS (N-methyldibenzopyrazine methylsulphate, Sigma) and added to the cells, so as to result in a final concentration of 325 μg of XTT/ml and 2.5 μg PMS/ml. The mixture was then incubated for 3 h at 37° C., 95% air humidity. Subsequently the formazan salt formed by cellular dehydrogenases was quantified at an absorption of 490 nm.
(§12) The evaluation of the % inhibition values was done by means of the following formula from the values for the optical densities measured in each case at 490 nm:
(§13) The controls were determined 8 times each, the substance samples twice each. 0% control contained no cells; the 100% control contained no test substance. The EC50 values were determined with GraphPadPrism.

MDA-MB468 = experiment: XTT assay, anti-proliferative action, MDA-MB468; format: cell-based; conditions: Homo sapiens, MDA-MB-468, 45 h, MDA-MB468 cells, 45 h incubation
Method: as §8, §9, §10, §11, §12, §13

Hct116 = experiment: XTT assay, anti-proliferative action, Hct116; format: cell-based; conditions: Homo sapiens, HCT-116, 45 h, Hct116 cells, 45 h incubation
Method: as §8, §9, §10, §11, §12, §13

Row | Compound | IC50 (Jnk1 + Jnk2) [µM] | inhibition at 50 µM (Erk →pRsk) [%] | inhibition at 50 µM (PI3K →pAkt) [%] | melting point | IC50 (Erk2) [µM] | IC50 (PI3Kalpha) [µM] | EC50 (BxPC3) [µM] | EC50 (MDA-MB468) [µM] | EC50 (Hct116) [µM]
1 | CCNC(=O)Nc1ccc2ncc(-c3ccc(OC(=O)OC)cc3)nc2n1 [Compound 9, 4-[6-(3-Ethylurea)pyrido[2,3-b]pyrazin-3-yl]phenyl methyl carbonate] | > 100 | 90 | 50 | 243 to 245 °C | – | – | – | – | –
2 | CCNC(=O)Nc1ccc2ncc(-c3ccc(OC(=O)OCCOC)c(OC)c3)nc2n1 [Compound 32, 4-[6-(3-Ethylurea)pyrido[2,3-b]pyrazin-3-yl]-2-methoxyphenyl 2-methoxyethyl carbonate] | 4.2 | 100 | 90 | – | 0.824 | 1.3 | 5.9 | 4.5 | 2.2
3 | CCNC(=O)Nc1ccc(-c2cnc3ccc(NC(=O)NCC)nc3n2)cc1 [Compound 23, 1-Ethyl-3-{3-[4-(3-ethylurea)phenyl]pyrido[2,3-b]pyrazin-6-yl}urea] | 5.7 | 0 | 70 | > 350 °C (dec.) | 1.9 | 1.3 | > 50 | > 25 | 16
4 | CCNC(=O)Nc1ccc2ncc(-c3ccc(OC(=O)OCCOC)cc3)nc2n1 [Compound 10, 4-[6-(3-Ethylurea)pyrido[2,3-b]pyrazin-3-yl]phenyl(2-methoxyethyl)carbonate] | 2.9 | 100 | 100 | 230 to 232 °C | – | – | – | – | –
